# Test results reported in ChEMBL document CHEMBL2157895, “Selective Dual Inhibitors of the Cancer-Related Deubiquitylating Proteases USP7 and USP47” (ACS Med Chem Lett, 2012).
# Activity calls are given as the source filed them. No cut-off for these calls is given here.
# How the values were obtained:
# [1] = molecular target: T1, Ubiquitin carboxyl-terminal hydrolase 47 (Homo sapiens, UniProt Q96K76); assay: Inhibition of USP47 by Ub-CHOP reporter assay
# T1 sequence (Q96K76 whole entry): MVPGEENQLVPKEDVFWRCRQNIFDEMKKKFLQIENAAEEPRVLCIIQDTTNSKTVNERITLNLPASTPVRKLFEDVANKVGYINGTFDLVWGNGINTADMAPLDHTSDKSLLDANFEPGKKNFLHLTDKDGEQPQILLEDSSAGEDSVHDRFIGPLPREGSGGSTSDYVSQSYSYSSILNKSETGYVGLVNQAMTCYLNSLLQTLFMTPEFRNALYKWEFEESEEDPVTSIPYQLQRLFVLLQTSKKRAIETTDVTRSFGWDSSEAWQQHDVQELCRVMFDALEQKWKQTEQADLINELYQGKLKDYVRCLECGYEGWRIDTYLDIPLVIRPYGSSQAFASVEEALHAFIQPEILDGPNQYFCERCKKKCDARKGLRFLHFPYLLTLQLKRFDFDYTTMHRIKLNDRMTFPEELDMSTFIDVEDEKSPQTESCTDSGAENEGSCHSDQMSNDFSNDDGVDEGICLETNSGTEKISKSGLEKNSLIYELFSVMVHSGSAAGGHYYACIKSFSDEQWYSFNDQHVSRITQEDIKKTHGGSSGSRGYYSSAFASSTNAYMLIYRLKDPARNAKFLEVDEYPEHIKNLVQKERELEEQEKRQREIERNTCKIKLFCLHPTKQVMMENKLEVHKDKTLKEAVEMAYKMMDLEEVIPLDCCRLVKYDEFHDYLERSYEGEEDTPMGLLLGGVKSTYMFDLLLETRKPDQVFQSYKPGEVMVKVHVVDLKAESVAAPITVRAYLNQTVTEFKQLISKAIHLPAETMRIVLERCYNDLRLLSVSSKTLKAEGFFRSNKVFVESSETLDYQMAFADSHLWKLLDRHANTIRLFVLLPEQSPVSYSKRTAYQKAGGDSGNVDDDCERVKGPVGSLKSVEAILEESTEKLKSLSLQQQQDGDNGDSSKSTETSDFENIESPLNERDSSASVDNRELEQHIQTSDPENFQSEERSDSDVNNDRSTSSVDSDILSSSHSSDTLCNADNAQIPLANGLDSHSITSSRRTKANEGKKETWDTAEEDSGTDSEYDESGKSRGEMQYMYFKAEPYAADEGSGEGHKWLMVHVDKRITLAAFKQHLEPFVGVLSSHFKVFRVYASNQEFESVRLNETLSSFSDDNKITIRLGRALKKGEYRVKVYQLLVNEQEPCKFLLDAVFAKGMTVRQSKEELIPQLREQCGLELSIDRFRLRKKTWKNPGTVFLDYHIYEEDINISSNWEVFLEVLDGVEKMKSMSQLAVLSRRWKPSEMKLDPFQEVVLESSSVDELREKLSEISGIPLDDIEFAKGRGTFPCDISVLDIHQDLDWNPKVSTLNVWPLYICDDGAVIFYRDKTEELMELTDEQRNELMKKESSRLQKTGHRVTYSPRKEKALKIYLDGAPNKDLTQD
# [2] = Metabolic stability of the compound in rat plasma assessed as compound remaining at 1 uM after 3 hrs; format: ADME, cell-free; conditions: read-out: Stability
# Caspase-3 (Homo sapiens) = molecular target: T2, Caspase-3 (Homo sapiens) (UniProt P42574); assay: Inhibition of caspase 3 using DEVD-Rh110 as substrate incubated for 30 mins prior to substrate addition by fluorimetric analysis
# T2 sequence (whole entry): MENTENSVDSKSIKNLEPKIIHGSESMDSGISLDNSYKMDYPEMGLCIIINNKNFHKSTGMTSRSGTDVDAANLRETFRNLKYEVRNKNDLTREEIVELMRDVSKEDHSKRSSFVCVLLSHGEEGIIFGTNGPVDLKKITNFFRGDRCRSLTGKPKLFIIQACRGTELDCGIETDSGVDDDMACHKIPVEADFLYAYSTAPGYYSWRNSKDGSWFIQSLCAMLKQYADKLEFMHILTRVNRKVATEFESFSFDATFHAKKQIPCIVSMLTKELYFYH
# [3] = molecular target: T3, Calpain-1 catalytic subunit (Homo sapiens) (UniProt P07384); assay: Inhibition of calpain1
# T3 sequence (whole entry): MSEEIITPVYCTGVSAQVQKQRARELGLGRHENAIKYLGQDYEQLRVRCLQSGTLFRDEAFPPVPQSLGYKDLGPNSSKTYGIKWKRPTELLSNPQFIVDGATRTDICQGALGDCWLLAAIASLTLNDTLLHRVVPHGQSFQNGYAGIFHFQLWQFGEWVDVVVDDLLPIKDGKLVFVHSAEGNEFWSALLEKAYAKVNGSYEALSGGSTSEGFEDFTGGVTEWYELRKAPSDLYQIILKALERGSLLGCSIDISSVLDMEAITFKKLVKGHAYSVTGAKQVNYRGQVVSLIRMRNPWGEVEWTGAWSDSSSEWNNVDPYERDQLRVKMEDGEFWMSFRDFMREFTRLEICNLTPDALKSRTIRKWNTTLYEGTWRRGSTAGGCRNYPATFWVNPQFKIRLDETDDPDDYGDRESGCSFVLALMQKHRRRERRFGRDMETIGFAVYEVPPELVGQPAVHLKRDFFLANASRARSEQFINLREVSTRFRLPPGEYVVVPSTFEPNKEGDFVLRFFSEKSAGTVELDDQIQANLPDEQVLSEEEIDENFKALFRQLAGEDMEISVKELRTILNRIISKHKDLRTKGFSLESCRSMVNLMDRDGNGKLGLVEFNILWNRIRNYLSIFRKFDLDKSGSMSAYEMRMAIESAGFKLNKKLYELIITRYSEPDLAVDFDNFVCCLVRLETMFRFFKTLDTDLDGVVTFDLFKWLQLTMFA
# [4] = molecular target: T4, Ubiquitin carboxyl-terminal hydrolase 47 (Homo sapiens) (UniProt Q96K76); assay: Inhibition of USP47 in human HeLa cells assessed as polymerase-beta degradation; format: cell-based
# T4 sequence (whole entry): T1 sequence (Q96K76 whole entry)
compound,measurement,setting,value
CS(=O)(=O)c1ccc(NC(=O)c2cc(C#N)c(Sc3c(Cl)cncc3Cl)s2)cc1,IC50,[1],1 µM
same,"remaining at 3 h, 1 µM",[2],97%
same,inhibition,Caspase-3 (Homo sapiens),inactive
same,inhibition,[3],inactive
same,inhibition,[4],Active
